Experimental data: the supplement of paper PMC11061612

Legend:
Test in all cases: Bliss excess, mean over the matrix (fraction); higher = more synergy
[1] = tested on: L-1236 (Hodgkin's Lymphoma)
In short: (§1)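 Cell lines in DMEM/F12 or RPMI with 10% FBS were plated in 1536-well plates, held 24 hours at 37°C, 5% CO2, then given two-drug dose matrices for 72 hours (DMSO typically 0.2%). Viability was read by CellTiter-Glo 2.0 luminescence and scaled as inhibition from 0 (vehicle wells) to 1 (blank wells). Combination Emax is the second-highest inhibition in the matrix; Bliss excess is observed combination effect minus expected EA + EB − EA·EB, EA and EB being single-agent effects.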

[2] = tested on: REH (B-Lymphoblastic Leukemia)
In short: as §1

[3] = tested on: KE-37 (T-Lymphoblastic Leukemia)
In short: as §1

[4] = tested on: TE-8 (Esophageal Squamous Cell Carcinoma)
In short: as §1

[5] = tested on: PSN1 (Pancreatic Carcinoma)
In short: as §1

[6] = tested on: LXF-289 (Lung Adenocarcinoma)
In short: as §1

[7] = tested on: OVMIU (Ovarian Carcinoma)
In short: as §1

[8] = tested on: SF268 (Low Grade Glioma)
In short: as §1

[9] = tested on: HCT-15 (Colorectal Carcinoma)
In short: as §1

[10] = tested on: NCI-H446 (Small Cell Lung Carcinoma)
In short: as §1

[11] = tested on: OPM-2 (Plasma Cell Myeloma)
In short: as §1

[12] = tested on: SHP-77 (Small Cell Lung Carcinoma)
In short: as §1

[13] = tested on: CAL-62 (Thyroid Gland Carcinoma)
In short: as §1

[14] = tested on: WM278 (Melanoma)
In short: as §1

[15] = tested on: SK-PN-DW (Other Solid Carcinomas)
In short: as §1

[16] = tested on: FADU (Head and Neck Carcinoma)
In short: as §1

[17] = tested on: A2058 (Melanoma)
In short: as §1

[18] = tested on: WM793B (Melanoma)
In short: as §1

[19] = tested on: PC-3_[JPC-3] (Lung Adenocarcinoma)
In short: as §1

[20] = tested on: LK-2 (Squamous Cell Lung Carcinoma)
In short: as §1

SMILES	Bliss excess [1]	Bliss excess [2]	Bliss excess [3]	Bliss excess [4]	Bliss excess [5]	Bliss excess [6]	Bliss excess [7]	Bliss excess [8]	Bliss excess [9]	Bliss excess [10]	Bliss excess [11]	Bliss excess [12]	Bliss excess [13]	Bliss excess [14]	Bliss excess [15]	Bliss excess [16]	Bliss excess [17]	Bliss excess [18]	Bliss excess [19]	Bliss excess [20]
CN(C)CCCOc1ccc(-c2ccc3ncc4c(c3c2)n(C2CCOCC2)c(=O)n4C)cn1 [AZD0156] + C=CCn1c(=O)c2cnc(Nc3ccc(N4CCN(C)CC4)cc3)nc2n1-c1cccc(C(C)(C)O)n1 [AZD1775] (first compound max 1 µM, partner max 1 µM)	-0.0514	-0.0158	0.0241	-0.0104	-0.0242	0.0066	-0.0113	-0.0665	0.0622	-0.0399	-0.0607	-0.0219	-0.0006	-0.0331	-0.0282	0.0316	-0.0313	-0.0081	-0.0018	-0.048
CN(C)CCCOc1ccc(-c2ccc3ncc4c(c3c2)n(C2CCOCC2)c(=O)n4C)cn1 [AZD0156] + CCN(CCO)CCCOc1ccc2c(Nc3cc(CC(=O)Nc4cccc(F)c4)[nH]n3)ncnc2c1 [AZD2811] (first compound max 1 µM, 7x7, partner max 1 µM)	-0.0332	-0.0137	-0.0173	-0.0073	-0.0336	0.052	-0.0411	-0.0204	0.0156	-0.0587	0.041	-0.034	0.007	-0.0259	0.0147	0.0626	-0.0201	0.0212	-0.0524	0.0201
CN(C)CCCOc1ccc(-c2ccc3ncc4c(c3c2)n(C2CCOCC2)c(=O)n4C)cn1 [AZD0156] + C[C@@H]1COCCN1C2=NC(=NC(=C2)C3(CC3)[S@](=N)(=O)C)C4=C5C=CNC5=NC=C4 [AZD6738] (first compound max 1 µM, 7x7, partner max 10 µM)	-0.0315	-0.0277	0.0459	0.0087	-0.0202	0.0318	-0.0072	-0.0359	0.0663	0.0625	0.0261	0.0535	-0.0221	-0.0332	-0.075	0.0537	-0.0135	0.0342	-0.006	-0.0261
CN(C)CCCOc1ccc(-c2ccc3ncc4c(c3c2)n(C2CCOCC2)c(=O)n4C)cn1 [AZD0156] + O=C(c1cc(Cc2n[nH]c(=O)c3ccccc23)ccc1F)N1CCN(C(=O)C2CC2)CC1 [Olaparib] (first compound max 3 µM, partner max 3 µM)	-0.0602	0.143	0.0951		0.0124	0.092	0.06	-0.0347	0.007	0.0788	0.0067	0.0544	0.0939	0.0011	0.0158	0.0039	0.151	0.0206	-0.0349	0.154
C=CCn1c(=O)c2cnc(Nc3ccc(N4CCN(C)CC4)cc3)nc2n1-c1cccc(C(C)(C)O)n1 [AZD1775] + C1CN(CCC1(C(=O)N[C@@H](CCO)C2=CC=C(C=C2)Cl)N)C3=NC=NC4=C3C=CN4 [Capivasertib] (first compound max 3 µM, partner max 3 µM)	-0.097	0.0008	-0.0132		-0.0238	-0.0046	-0.0032	-0.009	0.0159	0.0213	0.0001	-0.0114	0.0089	-0.0468	0.0265	0.0615	0.0217	-0.0157	-0.0534	-0.0913
C=CCn1c(=O)c2cnc(Nc3ccc(N4CCN(C)CC4)cc3)nc2n1-c1cccc(C(C)(C)O)n1 [AZD1775] + C[C@@H]1COCCN1C2=NC(=NC(=C2)C3(CC3)[S@](=N)(=O)C)C4=C5C=CNC5=NC=C4 [AZD6738] (first compound max 1 µM, partner max 10 µM)	-0.032	0.0406	0.0552	0.0126	-0.0188	0.0266	-0.0635	0.0337	0.0483	0.0581	0.0437	0.0598	-0.061	-0.0058	0.0186	0.0676	0.0553	-0.034	-0.0732	-0.0086
CN(CCO)CC[C@H](CSc1ccccc1)Nc1ccc(S(=O)(=O)NC(=O)c2ccc(N3CCC([C@@H](O)c4ccccc4-c4ccc(Cl)cc4)CC3)cc2)cc1S(=O)(=O)C(F)(F)F [AZD4320] + Cn1cnc2c(F)c(Nc3ccc(Br)cc3Cl)c(C(=O)NOCCO)cc21 [Selumetinib] (first compound max 1 µM, 7x7, partner max 3 µM)	0.0288	-0.0369	0.0464	-0.0628	0.0043	-0.0301	-0.0595	0.0069	0.0267	-0.0039	0.0683	0.0429	-0.0051	0.0582	-0.0198	0.183		0.0604	0.0339	-0.0134
COc1nnc2ccc(N3CCC(c4ccc(OCCN5CCN(C)C(=O)[C@H]5C)cc4)CC3)nn12 [AZD5153] + CN(CC[C@H](CSC1=CC=CC=C1)NC2=C(C=C(C=C2)S(=O)(=O)NC(=O)C3=CC=C(C=C3)N4CCC(CC4)[C@H](C5=CC=CC=C5C6=CC=C(C=C6)Cl)O)S(=O)(=O)C(F)(F)F)CCO [AZD4320] (first compound max 1 µM, 7x7, partner max 1 µM)			0.0222			0.0194		-0.0183	-0.0035	0.107				0.0168		0.0146	-0.0062	-0.0257		
Cc1c2c(nn1C)CSCc1cc(n(C)n1)CSc1cc(c3ccccc3c1)OCCCc1c(C(=O)O)n(C)c3c-2c(Cl)ccc13 [AZD5991] + C1CN(CCC1(C(=O)N[C@@H](CCO)C2=CC=C(C=C2)Cl)N)C3=NC=NC4=C3C=CN4 [Capivasertib] (first compound max 1 µM, 7x7, partner max 3 µM)	0.0039	-0.0557	-0.0409	0.0306	-0.0533	0.042	0.0023	-0.008	0.002	0.0419	-0.0121	-0.0033		-0.0498	0.032	0.0213	0.0972	0.0045	-0.0062	-0.0103
Cc1c2c(nn1C)CSCc1cc(n(C)n1)CSc1cc(c3ccccc3c1)OCCCc1c(C(=O)O)n(C)c3c-2c(Cl)ccc13 [AZD5991] + CCN(CCO)CCCOc1ccc2c(Nc3cc(CC(=O)Nc4cccc(F)c4)[nH]n3)ncnc2c1 [AZD2811] (first compound max 1 µM, 7x7, partner max 1 µM)	0.0255	0.0422	0.0133	-0.0138	-0.0467	0.0912	-0.099	0.0835	0.0432		0.0578	-0.034	0.0397	0.0657	0.0869	0.132	0.114	0.0264	-0.0049	-0.0115
Cc1c2c(nn1C)CSCc1cc(n(C)n1)CSc1cc(c3ccccc3c1)OCCCc1c(C(=O)O)n(C)c3c-2c(Cl)ccc13 [AZD5991] + CN(C)CCCOc1ccc(-c2ccc3ncc4c(c3c2)n(C2CCOCC2)c(=O)n4C)cn1 [AZD0156] (first compound max 1 µM, 7x7, partner max 1 µM)	0.0295	-0.0321	0.0257	-0.0172		0.0472	-0.0328	0.0324	0.0369	0.052	-0.0241	-0.0033	-0.0061	-0.0196	-0.0117	0.0409	-0.0048	-0.0312	-0.0156	0.0039
Cc1c2c(nn1C)CSCc1cc(n(C)n1)CSc1cc(c3ccccc3c1)OCCCc1c(C(=O)O)n(C)c3c-2c(Cl)ccc13 [AZD5991] + C[C@@H](Nc1cc(F)cc(F)c1)c1cc(C(=O)N(C)C)cc2c(=O)cc(N3CCOCC3)oc12 [AZD8186] (first compound max 1 µM, 7x7, partner max 3 µM)	0.0233	-0.024	-0.0459	-0.013	-0.0407	-0.0127	-0.0181	-0.0095	-0.01	0.183	-0.0104	-0.0379		0.0096	0.0126	0.0315	0.119	0.0512	0.0031	0.0056
CS(=O)(=O)CCNCc1ccc(-c2ccc3ncnc(Nc4ccc(OCc5cccc(F)c5)c(Cl)c4)c3c2)o1 [Lapatinib] + NC1(c2ccc(-c3nc4ccn5c(=O)[nH]nc5c4cc3-c3ccccc3)cc2)CCC1 [MK-2206] (first compound max 10 µM, 7x7, partner max 10 µM)	0.0138	0.0194		-0.0004	0.0205		0.0659			-0.0173	0.0183	-0.0136	-0.0034		0.1		-0.049		-0.0174	0.0303
CCc1c2c(nc3ccc(O)cc13)-c1cc3c(c(=O)n1C2)COC(=O)[C@]3(O)CC [SN-38] + O=C(c1cc(Cc2n[nH]c(=O)c3ccccc23)ccc1F)N1CCN(C(=O)C2CC2)CC1 [Olaparib] (first compound max 0.3 µM, 7x7, partner max 10 µM)	0.0111	0.0473	0.0357	0.0202	0.0329		0.0409		0.0754	0.0477	0.0082	0.0235	0.0139	0.0486	0.0708	0.086	0.038		0.113	0.128
C[C@@H](c1ccc2nccn2c1)n1nnc2ncc(-c3cnn(C)c3)nc21 [Savolitinib] + CN(CC[C@H](CSC1=CC=CC=C1)NC2=C(C=C(C=C2)S(=O)(=O)NC(=O)C3=CC=C(C=C3)N4CCC(CC4)[C@H](C5=CC=CC=C5C6=CC=C(C=C6)Cl)O)S(=O)(=O)C(F)(F)F)CCO [AZD4320] (first compound max 1 µM, 7x7, partner max 1 µM)			-0.0327			-0.0203		-0.0491	-0.0274	0.112				-0.0406		-0.0378	0.0035	-0.0644		
